Experiments:
Assay type in all cases: biochemical
[1] = biological target: JAK3 (Homo sapiens (Human), UniProt P52333); test: JAK enzymatic assay (peptide mobility shift), JAK3; conditions: recombinant JAK3 1 nM, JAKtide peptide, 90 minutes
[2] = biological target: JAK2 (Homo sapiens (Human), UniProt O60674); test: JAK enzymatic assay (peptide mobility shift), JAK2; conditions: recombinant JAK2 2 nM, JAKtide peptide, 150 minutes
[3] = biological target: JAK1 (Homo sapiens (Human), UniProt P23458); test: JAK enzymatic assay (peptide mobility shift), JAK1; conditions: recombinant JAK1 20 nM, IRS-1 peptide, 240 minutes
JAK1, sequence (P23458 whole entry): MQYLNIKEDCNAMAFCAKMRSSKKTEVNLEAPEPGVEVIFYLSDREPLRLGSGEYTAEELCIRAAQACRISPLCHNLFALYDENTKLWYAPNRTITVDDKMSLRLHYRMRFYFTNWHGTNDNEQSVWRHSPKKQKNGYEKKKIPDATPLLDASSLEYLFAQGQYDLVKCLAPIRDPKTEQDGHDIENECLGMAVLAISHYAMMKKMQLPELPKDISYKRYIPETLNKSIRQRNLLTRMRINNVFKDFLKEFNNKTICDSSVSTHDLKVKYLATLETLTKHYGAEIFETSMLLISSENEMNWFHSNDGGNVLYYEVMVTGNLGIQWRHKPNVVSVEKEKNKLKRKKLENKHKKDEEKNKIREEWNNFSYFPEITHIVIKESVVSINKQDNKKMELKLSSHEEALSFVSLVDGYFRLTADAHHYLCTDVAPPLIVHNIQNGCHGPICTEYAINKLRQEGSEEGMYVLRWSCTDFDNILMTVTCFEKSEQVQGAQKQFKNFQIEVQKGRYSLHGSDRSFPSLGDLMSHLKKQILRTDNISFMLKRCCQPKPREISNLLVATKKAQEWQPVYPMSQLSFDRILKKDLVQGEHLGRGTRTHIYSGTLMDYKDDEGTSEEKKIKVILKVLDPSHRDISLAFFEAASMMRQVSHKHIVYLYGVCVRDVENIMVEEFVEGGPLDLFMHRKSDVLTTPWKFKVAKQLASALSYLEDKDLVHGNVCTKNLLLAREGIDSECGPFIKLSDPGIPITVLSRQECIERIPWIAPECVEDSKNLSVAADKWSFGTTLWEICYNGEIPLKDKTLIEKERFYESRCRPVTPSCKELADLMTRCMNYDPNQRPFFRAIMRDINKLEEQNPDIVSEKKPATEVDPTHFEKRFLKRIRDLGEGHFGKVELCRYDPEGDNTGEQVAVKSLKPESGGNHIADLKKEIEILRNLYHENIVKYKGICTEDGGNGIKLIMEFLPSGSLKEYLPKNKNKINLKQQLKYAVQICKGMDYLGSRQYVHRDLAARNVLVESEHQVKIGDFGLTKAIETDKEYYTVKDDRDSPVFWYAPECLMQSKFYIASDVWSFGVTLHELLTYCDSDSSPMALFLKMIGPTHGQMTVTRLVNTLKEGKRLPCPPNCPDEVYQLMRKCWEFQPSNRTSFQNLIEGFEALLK

JAK2, sequence (O60674 808-1132): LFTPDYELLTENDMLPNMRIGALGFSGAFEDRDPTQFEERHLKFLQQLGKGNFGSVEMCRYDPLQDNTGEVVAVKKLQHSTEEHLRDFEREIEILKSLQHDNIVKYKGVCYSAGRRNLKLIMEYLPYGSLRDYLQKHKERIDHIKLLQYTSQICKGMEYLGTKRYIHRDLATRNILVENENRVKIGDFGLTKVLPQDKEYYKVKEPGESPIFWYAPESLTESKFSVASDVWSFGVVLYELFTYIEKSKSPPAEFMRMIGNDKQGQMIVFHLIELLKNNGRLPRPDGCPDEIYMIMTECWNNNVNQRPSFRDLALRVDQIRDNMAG
JAK3, sequence (P52333 781-1124): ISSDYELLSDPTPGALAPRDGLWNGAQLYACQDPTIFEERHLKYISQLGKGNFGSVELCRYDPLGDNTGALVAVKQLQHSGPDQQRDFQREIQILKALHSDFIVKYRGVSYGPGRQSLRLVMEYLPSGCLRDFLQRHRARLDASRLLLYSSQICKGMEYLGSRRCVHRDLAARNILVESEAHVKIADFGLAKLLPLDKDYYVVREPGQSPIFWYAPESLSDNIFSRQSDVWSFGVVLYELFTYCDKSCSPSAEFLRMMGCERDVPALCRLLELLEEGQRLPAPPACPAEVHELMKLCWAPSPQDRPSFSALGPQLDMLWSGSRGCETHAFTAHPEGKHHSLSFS

| SMILES | IC50 [1] | IC50 [2] | IC50 [3] |
| --- | --- | --- | --- |
| CN(c1ncnc2[nH]ccc12)[C@H]1CC[C@H](CS(=O)(=O)N2C[C@H](CO)[C@H](S(C)(=O)=O)C2)CC1 [Example 33, [(3R,4S)-1-[({trans-4-[methyl(7H-pyrrolo[2,3-d]pyrimidin-4-yl)amino]-cyclohexyl}methyl)sulfonyl]-4-(methylsulfonyl)-pyrrolidin-3-yl]methanol] | 275 nM | 32.2 nM | 10.4 nM |
| CCN(CC)C(=O)C1CCN(S(=O)(=O)C[C@H]2CC[C@H](N(C)c3ncnc4[nH]ccc34)CC2)CC1 [Example 52, N,N-diethyl-1-[({trans-4-[methyl(7H-pyrrolo[2,3-d]-pyrimidin-4-yl)amino]-cyclohexyl}methyl)sulfonyl] piperidine-4-carboxamide] | 1240 nM | 115 nM | 22.6 nM |
| CN(c1ncnc2[nH]ccc12)[C@H]1CC[C@H](CS(=O)(=O)N2CCC(C(C)(C)O)CC2)CC1 [Example 47, 2-{1-[({trans-4-[methyl(7H-pyrrolo[2,3-d]pyrimidin-4-yl)amino]cyclohexyl}methyl)-sulfonyl]piperidin-4-yl}propan-2-ol] | 397 nM | 68.4 nM | 13.5 nM |
| Cc1cccc(C[C@H]2CCCN2S(=O)(=O)C[C@H]2CC[C@H](N(C)c3ncnc4[nH]ccc34)CC2)n1 [Example 106, N-methyl-N-{trans-4-[({2-[(6-methylpyridin-2-yl)methyl]pyrrolidin-1-yl}sulfonyl)methyl]cyclo-hexyl}-7H-pyrrolo[2,3-d]pyrimidin-4-amine] | 322 nM | 24.3 nM | 3.6 nM |
| CN(c1ncnc2[nH]ccc12)[C@H]1CC[C@H](CS(=O)(=O)N2CC[C@H](Oc3ccccc3C#N)C2)CC1 [Example 88, 2-({(3S)-1-[({trans-4-[methyl(7H-pyrrolo[2,3-d]-pyrimidin-4-yl)amino]-cyclohexyl}methyl)sulfonyl]pyrrolidin-3-yl}oxy)-benzonitrile] | 413 nM | 23.4 nM | 6.73 nM |
| CCc1ccc(COC[C@H]2CCN(S(=O)(=O)C[C@H]3CC[C@H](N(C)c4ncnc5[nH]ccc45)CC3)C2)nc1 [Example 94, N-(trans-4-{[(3-{[(5-ethylpyridin-2-yl)methoxy]-methyl}pyrrolidin-1-yl)-sulfonyl]methyl}-cyclohexyl)-N-methyl-7H-pyrrolo[2,3-d]pyrimidin-4-amine] | 678 nM | 63.6 nM | 17.5 nM |

Now from value to molecule:

| IC50 [1] | IC50 [2] | IC50 [3] | SMILES |
| --- | --- | --- | --- |
| 190 nM | 15.2 nM | 1.66 nM | CC(=O)NCC1CCCN(S(=O)(=O)C[C@H]2CC[C@H](N(C)c3ncnc4[nH]ccc34)CC2)C1 (stereo partly drawn) [Example 20, N-({1-[({trans-4-[methyl-(7H-pyrrolo[2,3-d]-pyrimidin-4-yl)amino]-cyclohexyl}methyl)sulfonyl]-piperidin-3-yl}methyl)-acetamide] |
| 200 nM | 14.4 nM | 2.88 nM | CN(c1ncnc2[nH]ccc12)[C@H]1CC[C@H](CS(=O)(=O)N2CC[C@H](CO)C2)CC1 [Example 31, {(3S)-1-[({trans-4-[methyl(7H-pyrrolo[2,3-d]pyrimidin-4-yl)amino]-cyclohexyl}methyl)sulfonyl]-pyrrolidin-3-yl}-methanol] |
| 592 nM | 33 nM | 11.3 nM | CN(c1ncnc2[nH]ccc12)[C@H]1CC[C@H](CS(=O)(=O)N2CCCC(Cc3ccccn3)C2)CC1 (stereo partly drawn) [Example 21, N-methyl-N-[trans-4-({[3-(pyridin-2-ylmethyl)-piperidin-1-yl]sulfonyl}-methyl)cyclohexyl]-7H-pyrrolo[2,3-d]pyrimidin-4-amine] |
| 167 nM | 17.7 nM | 5.98 nM | CN(c1ncnc2[nH]ccc12)[C@H]1CC[C@H](CS(=O)(=O)N2CCC(Cc3ncccn3)CC2)CC1 [Example 46, N-methyl-N-[trans-4-({[4-(pyrimidin-2-ylmethyl)-piperidin-1-yl]sulfonyl}-methyl)cyclohexyl]-7H-pyrrolo[2,3-d]pyrimidin-4-amine] |
| 721 nM | 65.4 nM | 18 nM | CN(c1ncnc2[nH]ccc12)[C@H]1CC[C@H](CS(=O)(=O)N2CC[C@H](Cc3ccccc3)C2)CC1 [Example 104, N-(trans-4-{[(3-benzyl-pyrrolidin-1-yl)sulfonyl]-methyl}cyclohexyl)-N-methyl-7H-pyrrolo[2,3-d]-pyrimidin-4-amine] |

Source: US8633206B2, “Pyrrolo[2,3-D]pyrimidine compounds” (Pfizer Inc., priority 2009, dated 2014)
